Laboratory results: patent publication US20090062369A1, “USE OF SECRETORY PHOSPHOLIPASE A2 (SPLA2) INHIBITORS TO DECREASE SPLA2 LEVELS” (priority 2007, published 2009)

Tested on: serum sPLA2
Test: Effect of twice-a-day oral A-002 on serum sPLA2 levels in subjects with stable coronary artery disease (Example 6)
Type: in vivo, human
Protocol: The protocol for preparing standard curve, test, and quality control samples for use in the assay disclosed herein is set forth in Example 5. Samples are prepared according to this protocol, then loaded in duplicate onto a plate (Cayman catalog no. 485002 or equivalent) that has been pre-coated with a monoclonal sPLA2 antibody (“capture antibody”) that specifically binds sPLA2. In certain embodiments, the capture antibody may interact with a specific form of sPLA2, such as for example sPLA2 type IIA.
sPLA2 acetylcholinesterase:Fab′ conjugate (AChE:Fab′) (“conjugate”) (Cayman catalog no. 485000 or equivalent) is reconstituted in EIA buffer (Cayman catalog no. 400060 or equivalent). Cayman EIA buffer is 1M phosphate, pH 7.0, 1% BSA, 4M NaCl, 10 mM EDTA, and 0.1% sodium azide. Reconstituted conjugate is added to each well of the plate. The conjugate binds a different sPLA2 epitope than the capture antibody, allowing the capture antibody and the conjugate to form a “sandwich” that is immobilized on the plate. Excess reagents are washed away, and the plate is covered and incubated overnight at 2-8° C.
Prior to development, the wells are washed five to six times with wash buffer (Cayman catalog no. 400062 or equivalent). To develop the plate, Ellman's Reagent (Cayman catalog no. 400050 or equivalent) is reconstituted in water and added to each well according to manufacturer instructions. The reconstituted Ellman's Reagent must be used the same day it is prepared because it is unstable. Ellman's Reagent contains an AChE substrate. Specifically, Ellman's Reagent contains acetylthiocholine and 5,5′-dithio-bis-(2-nitrobenzoic acid). Hydrolysis of acetylthiocholine by acetylcholinesterase produces thiocholine, which reacts with 5,5′-dithio-bis-(2-nitrobenzoic acid) to produce 5-thio-2-nitrobenzoic acid. 5-thio-2-nitrobenzoic acid has a strong absorbance at 412 nm. The intensity of absorbance at this wavelength is directly proportional to the concentration of bound conjugate, which is in turn is directly proportional to the concentration of sPLA2 present (Absorbance a [AChE:Fab′ conjugate] α [sPLA2]). During the development step, the plate is shaken, preferably in the dark. In certain embodiments the development time for the assay is 0.5 to 3 hours, preferably 1 to 1.5 hours. At the end of the development period, the high sPLA2 standards should have greater yellow color development than the zero standards. Absorbance of each well is measured at 400-420 nm using a micro-well plate reader. In certain embodiments, absorbance is measured at about 405 nm.
Absorbance readings for duplicate wells are averaged, and the relative standard deviation and % CV are calculated. Standard curve data are used to generate a four parameter curve, and quality control and test samples are measured against the appropriate standard curve (i.e., the standard curve with the same serum content). In order for a test to be considered valid, variation between duplicate wells should be no more than about 25%, and negative controls (blanks) for each standard curve should have a mean absorbance of less than about 0.3.
The method disclosed herein for measuring sPLA2 levels in serum was utilized to determine the effect of administering certain sPLA2 inhibitors on sPLA2 levels in 84 human subjects. The subjects included 24 subjects with diabetes, 32 subjects with metabolic syndrome, and 75 subjects receiving statin treatment. Subjects were administered the sPLA2 inhibitor A-002, a prodrug form of A-001, twice a day at varying dosages from 50 to 500 mg. The structures of A-002and A-001 are set forth below. At two weeks and four weeks after the first administration, sPLA2 levels were measured and compared to pre-administration baseline levels.
84 subjects with stable coronary artery disease were randomized to receive placebo or A-002 via oral administration twice a day over a four week administration period. […]

[1] = 100 mg, statin subgroup of ITT population
[2] = 250 mg, diabetes subgroup of ITT population
[3] = 250 mg, non-diabetes subgroup of ITT population
[4] = 250 mg, statin subgroup of ITT population
[5] = 500 mg, diabetes subgroup of ITT population
[6] = 500 mg, non-diabetes subgroup of ITT population

Compound: CCc1c(C(=O)C(N)=O)c2c(OCC(=O)OC)cccc2n1Cc1ccccc1 [A-002, [[3-(2-Amino-1,2-dioxoethyl)-2-ethyl-1-(phenylmethyl)-1H-indol-4-yl]oxy]acetic acid methyl ester]
- sPLA2 Change from baseline at week 4, Range [1]: -5.70 to 0.00 ng/mL
- sPLA2 level, Baseline, Mean [1]: 2.72 ng/mL
- sPLA2 level, Baseline, Median [1]: 2.65 ng/mL
- sPLA2 level, Baseline, Range [1]: 0.05 to 6.00 ng/mL
- sPLA2 level, Week 2, Mean [1]: 0.66 ng/mL
- sPLA2 level, Week 2, Median [1]: 0.40 ng/mL
- sPLA2 level, Week 2, Range [1]: 0.05 to 2.90 ng/mL
- sPLA2 level, Week 4, Mean [1]: 0.44 ng/mL
- sPLA2 level, Week 4, Median [1]: 0.40 ng/mL
- sPLA2 level, Week 4, Range [1]: 0.05 to 1.00 ng/mL
- sPLA2 Change from baseline at week 2, Mean (250 mg, ITT population): -2.02 ng/mL
- sPLA2 Change from baseline at week 2, Median (250 mg, ITT population): -1.90 ng/mL
- sPLA2 Change from baseline at week 2, Range (250 mg, ITT population): -4.20 to -0.20 ng/mL
- sPLA2 Change from baseline at week 4, Mean (250 mg, ITT population): -2.13 ng/mL
- sPLA2 Change from baseline at week 4, Median (250 mg, ITT population): -2.20 ng/mL
- sPLA2 Change from baseline at week 4, Range (250 mg, ITT population): -4.20 to 0.20 ng/mL
- sPLA2 level, Baseline, Mean (250 mg, ITT population): 2.88 ng/mL
- sPLA2 level, Baseline, Median (250 mg, ITT population): 2.40 ng/mL
- sPLA2 level, Baseline, Range (250 mg, ITT population): 1.30 to 5.20 ng/mL
- sPLA2 level, Week 2, Mean (250 mg, ITT population): 0.73 ng/mL
- sPLA2 level, Week 2, Median (250 mg, ITT population): 0.35 ng/mL
- sPLA2 level, Week 2, Range (250 mg, ITT population): 0.05 to 4.40 ng/mL
- sPLA2 level, Week 4, Mean (250 mg, ITT population): 0.61 ng/mL
- sPLA2 level, Week 4, Median (250 mg, ITT population): 0.35 ng/mL
- sPLA2 level, Week 4, Range (250 mg, ITT population): 0.05 to 2.30 ng/mL
- sPLA2 Change from baseline at week 2, Mean [2]: -1.83 ng/mL
- sPLA2 Change from baseline at week 2, Median [2]: -1.10 ng/mL
- sPLA2 Change from baseline at week 2, Range [2]: -4.20 to -0.20 ng/mL
- sPLA2 Change from baseline at week 4, Mean [2]: -1.75 ng/mL
- sPLA2 Change from baseline at week 4, Median [2]: -1.25 ng/mL
- sPLA2 Change from baseline at week 4, Range [2]: −4.20 to +0.20 ng/ml
- sPLA2 level, Baseline, Mean [2]: 3.00 ng/mL
- sPLA2 level, Baseline, Median [2]: 3.00 ng/mL
- sPLA2 level, Baseline, Range [2]: 1.30 to 4.70 ng/mL
- sPLA2 level, Week 2, Mean [2]: 0.60 ng/mL
- sPLA2 level, Week 2, Median [2]: 0.50 ng/mL
- sPLA2 level, Week 2, Range [2]: 0.20 to 1.10 ng/mL
- sPLA2 level, Week 4, Mean [2]: 0.68 ng/mL
- sPLA2 level, Week 4, Median [2]: 0.50 ng/mL
- sPLA2 level, Week 4, Range [2]: 0.05 to 1.50 ng/mL
- sPLA2 Change from baseline at week 2, Mean [3]: -2.08 ng/mL
- sPLA2 Change from baseline at week 2, Median [3]: -2.00 ng/mL
- sPLA2 Change from baseline at week 2, Range [3]: -3.80 to -0.80 ng/mL
- sPLA2 Change from baseline at week 4, Mean [3]: -2.25 ng/mL
- sPLA2 Change from baseline at week 4, Median [3]: -2.20 ng/mL
- sPLA2 Change from baseline at week 4, Range [3]: -3.50 to -1.20 ng/mL
- sPLA2 level, Baseline, Mean [3]: 2.84 ng/mL
- sPLA2 level, Baseline, Median [3]: 2.40 ng/mL
- sPLA2 level, Baseline, Range [3]: 1.50 to 5.20 ng/mL
- sPLA2 level, Week 2, Mean [3]: 0.76 ng/mL
- sPLA2 level, Week 2, Median [3]: 0.30 ng/mL
- sPLA2 level, Week 2, Range [3]: 0.05 to 4.40 ng/mL
- sPLA2 level, Week 4, Mean [3]: 0.60 ng/mL
- sPLA2 level, Week 4, Median [3]: 0.30 ng/mL
- sPLA2 level, Week 4, Range [3]: 0.05 to 2.30 ng/mL
- sPLA2 Change from baseline at week 2, Mean [4]: -2.01 ng/mL
- sPLA2 Change from baseline at week 2, Median [4]: -1.65 ng/mL
- sPLA2 Change from baseline at week 2, Range [4]: -4.20 to -0.20 ng/mL
- sPLA2 Change from baseline at week 4, Mean [4]: -2.13 ng/mL
- sPLA2 Change from baseline at week 4, Median [4]: -2.15 ng/mL
- sPLA2 Change from baseline at week 4, Range [4]: −4.20 to +0.20 ng/ml
- sPLA2 level, Baseline, Mean [4]: 2.84 ng/mL
- sPLA2 level, Baseline, Median [4]: 2.40 ng/mL
- sPLA2 level, Baseline, Range [4]: 1.30 to 5.20 ng/mL
- sPLA2 level, Week 2, Mean [4]: 0.68 ng/mL
- sPLA2 level, Week 2, Median [4]: 0.30 ng/mL
- sPLA2 level, Week 2, Range [4]: 0.05 to 4.40 ng/mL
- sPLA2 level, Week 4, Mean [4]: 0.57 ng/mL
- sPLA2 level, Week 4, Median [4]: 0.30 ng/mL
- sPLA2 level, Week 4, Range [4]: 0.05 to 2.30 ng/mL
- sPLA2 Change from baseline at week 2, Mean (500 mg, ITT population): -2.84 ng/mL
- sPLA2 Change from baseline at week 2, Median (500 mg, ITT population): -2.95 ng/mL
- sPLA2 Change from baseline at week 2, Range (500 mg, ITT population): -4.80 to -0.55 ng/mL
- sPLA2 Change from baseline at week 4, Mean (500 mg, ITT population): -2.87 ng/mL
- sPLA2 Change from baseline at week 4, Median (500 mg, ITT population): -2.95 ng/mL
- sPLA2 Change from baseline at week 4, Range (500 mg, ITT population): -4.80 to -0.55 ng/mL
- sPLA2 level, Baseline, Mean (500 mg, ITT population): 2.96 ng/mL
- sPLA2 level, Baseline, Median (500 mg, ITT population): 2.80 ng/mL
- sPLA2 level, Baseline, Range (500 mg, ITT population): 0.60 to 5.40 ng/mL
- sPLA2 level, Week 2, Mean (500 mg, ITT population): 0.18 ng/mL
- sPLA2 level, Week 2, Median (500 mg, ITT population): 0.05 ng/mL
- sPLA2 level, Week 2, Range (500 mg, ITT population): 0.05 to 0.60 ng/mL
- sPLA2 level, Week 4, Mean (500 mg, ITT population): 0.15 ng/mL
- sPLA2 level, Week 4, Median (500 mg, ITT population): 0.05 ng/mL
- sPLA2 level, Week 4, Range (500 mg, ITT population): 0.05 to 0.60 ng/mL
- sPLA2 Change from baseline at week 2, Mean [5]: -3.75 ng/mL
- sPLA2 Change from baseline at week 2, Median [5]: -3.50 ng/mL
- sPLA2 Change from baseline at week 2, Range [5]: -4.80 to -2.95 ng/mL
- sPLA2 Change from baseline at week 4, Mean [5]: -3.82 ng/mL
- sPLA2 Change from baseline at week 4, Median [5]: -3.70 ng/mL
- sPLA2 Change from baseline at week 4, Range [5]: -4.80 to -2.95 ng/mL
- sPLA2 level, Baseline, Mean [5]: 3.73 ng/mL
- sPLA2 level, Baseline, Median [5]: 3.40 ng/mL
- sPLA2 level, Baseline, Range [5]: 2.70 to 5.40 ng/mL
- sPLA2 level, Week 2, Mean [5]: 0.32 ng/mL
- sPLA2 level, Week 2, Median [5]: 0.30 ng/mL
- sPLA2 level, Week 2, Range [5]: 0.05 to 0.60 ng/mL
- sPLA2 level, Week 4, Mean [5]: 0.25 ng/mL
- sPLA2 level, Week 4, Median [5]: 0.10 ng/mL
- sPLA2 level, Week 4, Range [5]: 0.05 to 0.60 ng/mL
- sPLA2 Change from baseline at week 2, Mean [6]: -2.61 ng/mL
- sPLA2 Change from baseline at week 2, Median [6]: -2.68 ng/mL
- sPLA2 Change from baseline at week 2, Range [6]: -4.40 to -0.55 ng/mL
- sPLA2 Change from baseline at week 4, Mean [6]: -2.63 ng/mL
- sPLA2 Change from baseline at week 4, Median [6]: -2.53 ng/mL
- sPLA2 Change from baseline at week 4, Range [6]: -4.35 to -0.55 ng/mL
- sPLA2 level, Baseline, Mean [6]: 2.73 ng/mL
- sPLA2 level, Baseline, Median [6]: 2.70 ng/mL
- sPLA2 level, Baseline, Range [6]: 0.60 to 4.60 ng/mL
- sPLA2 level, Week 2, Mean [6]: 0.15 ng/mL
- sPLA2 level, Week 2, Median [6]: 0.05 ng/mL
